Measurements reported in patent US20230286946A1, “DIFLUOROMETHYL-PYRIDIN-2-YL TRIAZOLES” (Boehringer Ingelheim International GmbH, priority 2020, published 2023).

These compounds were tested against T1, human GABAA α5β3γ2s receptor (Homo sapiens, UniProt P18507+P31644) (assay: Assay A: in vitro inhibition of 3H-flumazenil binding, HEK cells expressing the human GABAA α5β3γ2s receptor). Details: compounds of the present invention; read-out: Assay A: GABAA α5 β3 γ2S Ki.
T1 sequence (P18507 1-475): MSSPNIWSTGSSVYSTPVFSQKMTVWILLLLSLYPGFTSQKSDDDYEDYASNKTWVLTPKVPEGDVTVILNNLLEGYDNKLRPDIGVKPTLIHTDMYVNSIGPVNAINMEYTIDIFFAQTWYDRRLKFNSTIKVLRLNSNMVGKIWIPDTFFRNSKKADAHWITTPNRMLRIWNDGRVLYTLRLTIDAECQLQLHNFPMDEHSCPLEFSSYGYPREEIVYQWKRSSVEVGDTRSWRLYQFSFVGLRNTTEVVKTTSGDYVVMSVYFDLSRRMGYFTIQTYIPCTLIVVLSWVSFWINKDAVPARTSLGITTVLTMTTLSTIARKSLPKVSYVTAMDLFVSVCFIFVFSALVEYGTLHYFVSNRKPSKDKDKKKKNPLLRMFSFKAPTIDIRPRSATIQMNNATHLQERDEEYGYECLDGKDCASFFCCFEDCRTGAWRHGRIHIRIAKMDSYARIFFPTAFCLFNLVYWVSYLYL
T1 sequence (P31644 1-462): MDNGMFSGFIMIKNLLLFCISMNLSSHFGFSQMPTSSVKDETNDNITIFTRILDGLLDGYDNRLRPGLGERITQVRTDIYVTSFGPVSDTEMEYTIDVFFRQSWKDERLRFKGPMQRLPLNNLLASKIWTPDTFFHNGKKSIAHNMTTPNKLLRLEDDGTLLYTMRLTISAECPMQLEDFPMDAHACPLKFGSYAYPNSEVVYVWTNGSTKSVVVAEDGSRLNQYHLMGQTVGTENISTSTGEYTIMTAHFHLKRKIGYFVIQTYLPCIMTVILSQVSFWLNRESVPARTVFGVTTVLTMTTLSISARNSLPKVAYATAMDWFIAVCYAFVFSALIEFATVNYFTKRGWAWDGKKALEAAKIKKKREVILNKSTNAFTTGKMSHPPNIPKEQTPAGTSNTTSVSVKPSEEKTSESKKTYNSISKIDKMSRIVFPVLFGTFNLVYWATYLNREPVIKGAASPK
Method: Cell Cultures and Membrane Preparation
HEK-293 cell lines with stable expression of recombinant human GABAA α5ß3 γ2s receptors (plasmid H46/E9/B10) are seeded in T175 polystyrene flasks or roller bottles (1700 cm^2, Fisher Scientific CCI-431191), and cultured (37° C., 5% CO2) in Dulbecco's Modified Eagle Medium (DMEM) with GlutaMAX™ supplemented with 10% fetal bovine serum and one or both of the following antibiotics: hygromycin B ([…]; γ2 subunit) or G418 (0.5 mg/ml; […]).
When the cultures reach confluency, the DMEM is removed and the cells are washed (10 ml for T175 flasks; 50 ml for roller bottles) once in Dulbecco's Phosphate Buffered Saline (DPBS). Following addition of DPBS to the cultures (10 ml for T175 flasks; 100 ml for roller bottles) for approximately 5 min cells are easily detached from the surface by shaking or tapping the flask gently. The cell suspension is transferred to Falcon tubes and centrifuged at 23,500×g for 10 min at 2° C. The pellet is washed once in 15 ml Tris-citrate buffer (50 mM, pH 7.1) using an Ultra-Turrax homogenizer and centrifuged at 2° C. for 10 min at 27,000×g. The washed pellet is re-suspended in 15 ml Tris-citrate buffer and frozen at −80° C. until the day of the binding experiment.
On the day of the experiment the cell membrane preparation is thawed and centrifuged at 2° C. for 10 min at 27,000×g. The pellet is re-suspended, using an Ultra-Turrax homogenizer in Tris-citrate buffer, to 15-50 µg protein per assay and then used for binding assays.
Non-specific binding is determined using clonazepam ([…]).
All dilutions of test compounds and incubation of assay are performed in glass vials/96-vial plates. […] Compounds are dissolved in 100% DMSO (10 mM stock), diluted in 48% ethanol-water, and tested in triplicate in serial 1:3 or 1:10 dilutions. When screening large numbers of compounds only one concentration of each compound is tested in single wells. Reference compounds are not included routinely, but for each experiment performed total and nonspecific binding is compared to data obtained during validation of the assay.
Binding is either terminated by rapid filtration onto
1) Whatman GF/C glass fibre filters using a Brandel Cell harvester, followed by 5 washes with 1 ml ice-cold buffer or onto 2) UniFilter GF/C glass fibre filter plates using a Tomtec cell harvester, followed by washing with approximately 5 ml ice-cold buffer.
The amount of radioactivity on the filters is determined by conventional liquid scintillation counting using a
1) Tri-Garb™ counter (PerkinElmer Life and Analytical Sciences) for separate large filters or
2) Topcount™ counter (PerkinElmer Life and Analytical Sciences) for 96-well filter plates.
Specific binding is total binding minus non-specific binding.
The IC50 value for a test compound is determined based on the equation: […]
where B is the binding in percentage of total specific binding; C is the concentration of test compound; and n is the Hill coefficient. For screening purposes n is set to 1. The IC50 value is calculated from the concentration response curves by the non-linear regression method using the curve-fitting program GraphPad Prism.
The Ki value for a test compound can be calculated from the IC50 value using the equation by Cheng and Prusoff: […]

Ki	SMILES
0.014 nM	Cc1nnn(-c2ccc(C(F)F)cn2)c1COc1ccc(-n2cnc(C#N)c2)nn1 [Example 42, 1-[6-({1-[5-(difluoromethyl)pyridin-2-yl]-4-methyl-1H-1,2,3-triazol-5-yl}methoxy)pyridazin-3-yl]-1H-imidazole-4-carbonitrile]
0.01 nM	Cc1nnn(-c2ccc(C(F)F)cn2)c1COc1ccc(-c2cnccn2)nn1 [Example 56, 3-({1-[5-(difluoromethyl)pyridin-2-yl]-4-methyl-1H-1,2,3-triazol-5-yl}methoxy)-6-(pyrazin-2-yl)pyridazine]
16 nM	Cc1nnn(-c2ccc(C(F)F)cn2)c1COc1ccc(-c2cc[nH]n2)nn1 [Example 5]

Same assay, conditions: read-out: Assay A: GABAA α 5 β 3 γ 2s Ki

SMILES	Ki
Cn1nnc(-c2ccc(C(F)F)cn2)c1COc1ccc(-n2ccc(C#N)n2)nn1 [Example 53]	19 nM
Cc1nnn(-c2ccc(C(F)F)cn2)c1COc1ccc(-c2ccc(C#N)nc2)nn1 [Example 8]	18 nM
Cc1nnn(-c2ccc(C(F)F)cn2)c1COc1ccc(-n2cnc(C#N)c2)nn1 [Example 42, 1-[6-({1-[5-(difluoromethyl)pyridin-2-yl]-4-methyl-1H-1,2,3-triazol-5-yl}methoxy)pyridazin-3-yl]-1H-imidazole-4-carbonitrile]	14 nM
COc1ncc(-c2ccc(OCc3c(-c4ccc(C(F)F)cn4)nnn3C)nn2)cn1 [Example 31]	23 nM
Cn1nnc(-c2ccc(C(F)F)cn2)c1COc1ccc(-n2cccn2)nn1 [Example 50]	22 nM
Cc1nnn(-c2ccc(C(F)F)cn2)c1COc1ccc(-n2ncnc2C)nn1 [Example 38]	12 nM
CCn1cc(-c2ccc(OCc3c(-c4ccc(C(F)F)cn4)nnn3C)nn2)cn1 [Example 22]	19 nM
Cc1nnn(-c2ccc(C(F)F)cn2)c1COc1ccc(-c2ccc(S(C)(=O)=O)nc2)nn1 [Example 16]	21 nM
Cc1nnn(-c2ccc(C(F)F)cn2)c1COc1ccc(-n2cc(C#N)cn2)nn1 [Example 37]	11 nM
Cn1nnc(-c2ccc(C(F)F)cn2)c1COc1ccc(-c2cnccn2)nn1 [Example 39]	39 nM
Cn1nnc(-c2ccc(C(F)F)cn2)c1COc1ccc(-c2cnc3nonc3c2)nn1 [Example 35]	49 nM
Cc1nnn(-c2ccc(C(F)F)cn2)c1COc1ccc(-c2ccc(N)nc2)nn1 [Example 19]	17 nM
Cn1nnc(-c2ccc(C(F)F)cn2)c1COc1ccc(-c2cccc(C(N)=O)c2)nn1 [Example 28]	24 nM
Cc1nnn(-c2ccc(C(F)F)cn2)c1COc1ccc(-c2ccc(=O)n(C)c2)nn1 [Example 1, 5-[6-({1-[5-(difluoromethyl)pyridin-2-yl]-4-methyl-1H-1,2,3-triazol-5-yl}methoxy)pyridazin-3-yl]-1-methyl-1,2-dihydropyridin-2-one]	10 nM
Cc1c(-c2ccc(OCc3c(-c4ccc(C(F)F)cn4)nnn3C)nn2)cc(C#N)n1C [Example 29]	19 nM
Cn1nnc(-c2ccc(C(F)F)cn2)c1COc1ccc(-n2cc(C#N)cn2)nn1 [Example 49]	25 nM
Cn1nnc(-c2ccc(C(F)F)cn2)c1COc1ccc(-n2cnc(C#N)c2)nn1 [Example 52]	35 nM
Cn1nnc(-c2ccc(C(F)F)cn2)c1COc1ccc(-c2cn[nH]c2)nn1 [Example 24]	32 nM
Cc1nn(C)cc1-c1ccc(OCc2c(-c3ccc(C(F)F)cn3)nnn2C)nn1 [Example 30]	24 nM
Cc1nnn(-c2ccc(C(F)F)cn2)c1COc1ccc(-c2cnccn2)nn1 [Example 56, 3-({1-[5-(difluoromethyl)pyridin-2-yl]-4-methyl-1H-1,2,3-triazol-5-yl}methoxy)-6-(pyrazin-2-yl)pyridazine]	10 nM
Cc1nnn(-c2ccc(C(F)F)cn2)c1COc1ccc(-c2c[nH]c(=O)c(F)c2)nn1 [Example 20]	16 nM
Cc1n[nH]c(C)c1-c1ccc(OCc2c(C)nnn2-c2ccc(C(F)F)cn2)nn1 [Example 15]	40 nM
Cc1nnn(-c2ccc(C(F)F)cn2)c1COc1ccc(-n2nccn2)nn1 [Example 43]	28 nM
Cc1nnn(-c2ccc(C(F)F)cn2)c1COc1ccc(-c2cc[nH]n2)nn1 [Example 5]	16 nM
Cn1nnc(-c2ccc(C(F)F)cn2)c1COc1ccc(-c2ccc(S(C)(=O)=O)nc2)nn1 [Example 23]	49 nM
Cc1nnn(-c2ccc(C(F)F)cn2)c1COc1ccc(-c2ccc(C#N)s2)nn1 [Example 12]	19 nM

More lines, in order of falling Ki, values ahead:

Ki	SMILES
82 nM	Cc1ncnn1-c1ccc(OCc2c(-c3ccc(C(F)F)cn3)nnn2C)nn1 [Example 48, 3-({4-[5-(difluoromethyl)pyridin-2-yl]-1-methyl-1H-1,2,3-triazol-5-yl}methoxy)-6-(5-methyl-1H-1,2,4-triazol-1-yl)pyridazine]
33 nM	CNc1cccc(-c2ccc(OCc3c(C)nnn3-c3ccc(C(F)F)cn3)nn2)n1 [Example 14]
26 nM	Cc1nnn(-c2ccc(C(F)F)cn2)c1COc1ccc(-c2cnn(CC#N)c2)nn1 [Example 7]
24 nM	Cc1c(-c2ccc(OCc3c(-c4ccc(C(F)F)cn4)nnn3C)nn2)cnn1C [Example 33]
23 nM	Cn1nnc(-c2ccc(C(F)F)cn2)c1COc1ccc(-c2ccc(N)nc2)nn1 [Example 25]
18 nM	Cn1nnc(-c2ccc(C(F)F)cn2)c1COc1ccc(-c2cnn(C3CCC3)c2)nn1 [Example 32]
17 nM	Cc1nnn(-c2ccc(C(F)F)cn2)c1COc1ccc(-c2cn[nH]c2)nn1 [Example 4]
16 nM	Cc1nnn(-c2ccc(C(F)F)cn2)c1COc1ccc(-c2ccnnc2)nn1 [Example 17]
15 nM	Cc1nnn(-c2ccc(C(F)F)cn2)c1COc1ccc(-c2cccc(C(N)=O)c2)nn1 [Example 6]
15 nM	Cc1nnn(-c2ccc(C(F)F)cn2)c1COc1ccc(-c2cnc(N)nc2)nn1 [Example 2]
14 nM	Cc1ncc(-c2ccc(OCc3c(C)nnn3-c3ccc(C(F)F)cn3)nn2)o1 [Example 18]
13 nM	Cc1cc(-c2ccc(OCc3c(C)nnn3-c3ccc(C(F)F)cn3)nn2)cnn1 [Example 3]
